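Tested at 5 concentrations; 48 h exposure; 96-well plates; endpoints linearly interpolated, else capped at highest concentration. The concentration for 50% growth inhibition is given as GI50.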 Activity calls are given as the source filed them. Cut-off read from the data, not from the text of the source: active = GI50 up to about 1.1 µM and inactive = higher.
Key:
Assay in all cases: inhibition of tumour cell growth, NCI panel, 48 h
SF-295 = system: SF-295
SK-OV-3 = system: SK-OV-3
EKVX = system: EKVX
TK-10 = system: TK-10
NCI-H23 = system: NCI-H23
MCF7 = system: MCF7
NCI-H460 = system: NCI-H460
COLO 205 = system: COLO 205
KM12 = system: KM12
OVCAR-3 = system: OVCAR-3
NCI-H226 = system: NCI-H226
OVCAR-5 = system: OVCAR-5
IGROV-1 = system: IGROV-1
MDA-MB-231 = system: MDA-MB-231
SK-MEL-2 = system: SK-MEL-2
HT-29 = system: HT-29
BT-549 = system: BT-549
M14 = system: M14
OVCAR-8 = system: OVCAR-8
HOP-92 = system: HOP-92
SR = system: SR
786-0 = system: 786-0
CAKI-1 = system: CAKI-1
Malme-3M = system: Malme-3M
NCI-H522 = system: NCI-H522
HCC 2998 = system: HCC 2998
ACHN = system: ACHN
A549 = system: A549
SW-620 = system: SW-620
MDA-MB-435 = system: MDA-MB-435
SF-268 = system: SF-268
SK-MEL-28 = system: SK-MEL-28
HCT-15 = system: HCT-15
CCRF-CEM = system: CCRF-CEM
U-251 = system: U-251
NCI/ADR-RES = system: NCI/ADR-RES
UACC-257 = system: UACC-257
Hs-578T = system: Hs-578T
OVCAR-4 = system: OVCAR-4
SNB-19 = system: SNB-19
SK-MEL-5 = system: SK-MEL-5
LOX IMVI = system: LOX IMVI
SF-539 = system: SF-539
PC-3 = system: PC-3
SN12C = system: SN12C
MDA-N = system: MDA-N
HOP-62 = system: HOP-62
HCT-116 = system: HCT-116
SNB-75 = system: SNB-75
DU-145 = system: DU-145
RPMI-8226 = system: RPMI-8226
A498 = system: A498
T47D = system: T47D
HL-60 = system: HL-60
UACC-62 = system: UACC-62
MOLT-4 = system: MOLT-4
UO-31 = system: UO-31
RXF 393 = system: RXF 393
K562 = system: K562

Cc1ccc(OCC2OC(n3cnc4c(Cl)nc(Cl)nc43)CC2Oc2ccc(C)cc2)cc1 (stereo not drawn) was tested, and the GI50 (SF-295) was 2.52 µM (inactive), the GI50 (SK-OV-3) was 19.2 µM (inactive) and the GI50 (EKVX) was 3.52 µM (inactive). The GI50 (TK-10) was 11.2 µM (inactive), the GI50 (NCI-H23) was 1.85 µM (inactive) and the GI50 (MCF7) was 1.85 µM (inactive). The GI50 (NCI-H460) was 1.87 µM (inactive), the GI50 (COLO 205) was 1.96 µM (inactive) and the GI50 (KM12) was 1.7 µM (inactive). The GI50 (OVCAR-3) was 2.37 µM (inactive), the GI50 (NCI-H226) was 3 µM (inactive) and the GI50 (OVCAR-5) was 5.78 µM (inactive). The GI50 (IGROV-1) was 2.04 µM (inactive), the GI50 (MDA-MB-231) was 2.08 µM (inactive) and the GI50 (SK-MEL-2) was 2.24 µM (inactive). The GI50 (HT-29) was 1.57 µM (inactive), the GI50 (BT-549) was 2.17 µM (inactive) and the GI50 (M14) was 1.85 µM (inactive). The GI50 (OVCAR-8) was 2.31 µM (inactive), the GI50 (HOP-92) was 2.28 µM (inactive) and the GI50 (SR) was 2.49 µM (inactive). The GI50 (786-0) was 14.5 µM (inactive), the GI50 (CAKI-1) was 1.57 µM (inactive) and the GI50 (Malme-3M) was 2.18 µM (inactive). The GI50 (NCI-H522) was 1.74 µM (inactive), the GI50 (HCC 2998) was 16.5 µM (inactive) and the GI50 (ACHN) was 1.37 µM (inactive). For the same compound, the GI50 (A549) was 3.5 µM (inactive), the GI50 (SW-620) was 3.66 µM (inactive) and the GI50 (MDA-MB-435) was 2.26 µM (inactive). For the same compound, the GI50 (SF-268) was 1.96 µM (inactive), the GI50 (SK-MEL-28) was 2.7 µM (inactive) and the GI50 (HCT-15) was 1.82 µM. For the same compound, the GI50 (CCRF-CEM) was 4.3 µM (inactive), the GI50 (U-251) was 2.13 µM (inactive) and the GI50 (NCI/ADR-RES) was 1.97 µM (inactive). For the same compound, the GI50 (UACC-257) was 2.68 µM (inactive), the GI50 (Hs-578T) was 1.9 µM (inactive) and the GI50 (OVCAR-4) was 2.15 µM (inactive). The GI50 (SNB-19) was 1.5 µM (inactive), the GI50 (SK-MEL-5) was 7.1 µM (inactive) and the GI50 (LOX IMVI) was 1.79 µM (inactive). The GI50 (SF-539) was 1.93 µM (inactive), the GI50 (PC-3) was 2.44 µM (inactive) and the GI50 (SN12C) was 3.85 µM (inactive). For the same compound, the GI50 (MDA-N) was 1.93 µM (inactive), the GI50 (HOP-62) was 2.56 µM (inactive) and the GI50 (HCT-116) was 1.91 µM (inactive). The GI50 (SNB-75) was 2.52 µM (inactive), the GI50 (DU-145) was 1.91 µM (inactive) and the GI50 (RPMI-8226) was 1.23 µM (inactive). For the same compound, the GI50 (A498) was 23.1 µM (inactive), the GI50 (T47D) was 2.14 µM (inactive) and the GI50 (HL-60) was 2.36 µM (inactive). The GI50 (UACC-62) was 1.98 µM (inactive) and the GI50 (MOLT-4) was 1.94 µM (inactive).
With NNC(=O)CCc1ccc2ccc3ccccc3c2c1 the GI50 (UO-31) was 18.8 µM (inactive), the GI50 (SF-295) was 78.7 µM (inactive) and the GI50 (RXF 393) was 94.4 µM (inactive). For the same compound, the GI50 (SK-OV-3) was > 100 µM (inactive), the GI50 (EKVX) was 16.4 µM (inactive) and the GI50 (TK-10) was > 100 µM (inactive). For the same compound, the GI50 (NCI-H23) was > 100 µM (inactive), the GI50 (MCF7) was > 100 µM (inactive) and the GI50 (NCI-H460) was > 100 µM (inactive). The GI50 (COLO 205) was > 100 µM (inactive), the GI50 (K562) was > 100 µM (inactive) and the GI50 (KM12) was > 100 µM (inactive). For the same compound, the GI50 (OVCAR-3) was 29.9 µM (inactive), the GI50 (NCI-H226) was 15.9 µM (inactive) and the GI50 (OVCAR-5) was > 100 µM (inactive). The GI50 (IGROV-1) was > 100 µM (inactive), the GI50 (MDA-MB-231) was > 100 µM (inactive) and the GI50 (SK-MEL-2) was > 100 µM (inactive). The GI50 (HT-29) was > 100 µM (inactive), the GI50 (BT-549) was 55.8 µM (inactive) and the GI50 (M14) was 71.8 µM (inactive). The GI50 (OVCAR-8) was > 100 µM (inactive), the GI50 (HOP-92) was 58.7 µM (inactive) and the GI50 (SR) was > 100 µM (inactive). The GI50 (786-0) was 94.4 µM (inactive), the GI50 (CAKI-1) was 54.3 µM (inactive) and the GI50 (Malme-3M) was 79.1 µM (inactive). The GI50 (NCI-H522) was 28.8 µM (inactive), the GI50 (HCC 2998) was > 100 µM (inactive) and the GI50 (ACHN) was > 100 µM (inactive). The GI50 (SW-620) was > 100 µM (inactive), the GI50 (MDA-MB-435) was > 100 µM (inactive) and the GI50 (SF-268) was 62.2 µM (inactive). The GI50 (SK-MEL-28) was > 100 µM (inactive), the GI50 (HCT-15) was 82 µM and the GI50 (CCRF-CEM) was > 100 µM (inactive). The GI50 (U-251) was > 100 µM (inactive), the GI50 (NCI/ADR-RES) was 89.1 µM (inactive) and the GI50 (UACC-257) was > 100 µM (inactive). For the same compound, the GI50 (Hs-578T) was 57.7 µM (inactive), the GI50 (OVCAR-4) was 74.6 µM (inactive) and the GI50 (SNB-19) was 85.7 µM (inactive). The GI50 (SK-MEL-5) was 92.3 µM (inactive), the GI50 (LOX IMVI) was 98.9 µM (inactive) and the GI50 (SF-539) was 54.6 µM (inactive). The GI50 (PC-3) was 67.3 µM (inactive), the GI50 (SN12C) was 68.1 µM (inactive) and the GI50 (MDA-N) was > 100 µM (inactive). The GI50 (HOP-62) was > 100 µM (inactive), the GI50 (HCT-116) was > 100 µM (inactive) and the GI50 (DU-145) was > 100 µM (inactive). The GI50 (RPMI-8226) was 72.1 µM (inactive), the GI50 (A498) was 49.2 µM (inactive) and the GI50 (T47D) was 70.6 µM (inactive). The GI50 (HL-60) was 0.312 µM (active), the GI50 (UACC-62) was > 100 µM (inactive) and the GI50 (MOLT-4) was 63.5 µM (inactive).

Source: ChEMBL document CHEMBL1201862, “PubChem BioAssay data set” (2004)
